Measurements taken from patent US20230372355A1 (AXSOME THERAPEUTICS, INC., priority 2022, published 2023).

Key:
[1] = system: patients with moderate and severe migraine; settings: human, in vivo
[2] = system: patients with moderate and severe migraine and a history of inadequate response to prior acute treatments; test: Phase 3 randomized, double-blind, placebo- and active-controlled trial, acute treatment of moderate and severe migraine (Example 1), efficacy; format: in vivo, human

Dizziness, % of subjects [1]: 2.1%
Dizziness, number of subjects [1]: 9
Nausea, % of subjects [1]: 4.8%
Nausea, number of subjects [1]: 21
Somnolence, % of subjects [1]: 2.1%
Somnolence, number of subjects [1]: 9
SMILES: CN(C)CCc1c[nH]c2ccc(Cn3cncn3)cc12 [rizatriptan, Rizatriptan]
Any Treatment-Emergent Adverse Event, % of subjects [1]: 15.4%
Any Treatment-Emergent Adverse Event, number of subjects [1]: 67
percentage of patients experiencing sustained pain relief from 2 hours to 24 hours after dosing ([2]; 2-24 hours): 43.9%
proportion of patients with sustained pain freedom from 2 hours to 48 hours ([2]; 2-48 hours): 8.8%
proportion of patients experiencing pain relief […] after dosing ([2]; […] after dosing): 52.5%
